Literature values, collected in patent US20050239743A1, “Compositions and methods to inhibit restenosis” (Pro-Pharmaceuticals, Inc., priority 2004, published 2005).

Conditions: long-term use 10,000 units/day, s.c., following coronary angioplasty

abnormal hemorrhage supervening: 41%
Substance: heparin
coronary restenosis, share of the cases (control restenosis value 33%): 82%
